# Data as given in patent publication US9040516B2, “Uracil derivative and use thereof for medical purposes” (SUMITOMO DAINIPPON PHARMA CO., LTD., priority 2011, dated 2015).
# Target: T1, human neutrophil elastase (Homo sapiens, UniProt P08246)
# T1 construct: purchased Elastin Products Company
# T1 sequence (P08246 30-267): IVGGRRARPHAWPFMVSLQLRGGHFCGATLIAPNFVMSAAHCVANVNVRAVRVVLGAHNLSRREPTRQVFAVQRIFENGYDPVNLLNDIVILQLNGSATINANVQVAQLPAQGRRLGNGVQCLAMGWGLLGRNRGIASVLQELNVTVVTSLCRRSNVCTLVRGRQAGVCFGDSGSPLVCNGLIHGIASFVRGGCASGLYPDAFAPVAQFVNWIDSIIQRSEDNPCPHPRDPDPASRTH
# Assay: Inhibitory action 2 against human neutrophil elastase (Test Example 2; fluorogenic substrate MeOSuc-AAPV-AMC, buffer with 400 mM NaCl, 0.2 mg/ml BSA)
# Type: biochemical
# Conditions: 37° C., read-out: IC50 value (compound concentration required for 50% inhibition of human neutrophil elastase)
# Description: Assay buffer (0.4 unit/ml HNE (human neutrophil elastase, available from Elastin Products Company), 200 mM HEPES [N-(2-hydroxyethyl)piperazine-N′-(2-ethanesulfonic acid)], pH 7.5, 400 mM NaCl, 0.2 mg/ml BSA (bovine serum albumin)) 100 μl, water for injection 20 μl and 1% DMSO (dimethyl sulfoxide) solution of the present compound 20 μl were mixed in a 96 well plate and the mixed solutions were pre-incubated at 37° C. for five minutes. After pre-incubation, MeOSuc-AAPV-AMC (methoxysuccinyl-alanyl-alanyl-prolyl-valyl-aminomethyl cumaride (available from Sigma Aldrich Corp.) solution as fluorogenic substrate (which was dissolved in 10% DMSO solution so as to adjust to 0.5 mM) 40 μl was added to the above-prepared mixed solution so as to initiate the reaction, and the mixture was incubated at 37° C. for five minutes. The fluorescence intensity of AMC was measured at an excitation wavelength of 380 nm and a fluorescence wavelength of 460 nm and the inhibition ratio was determined.
row,SMILES,IC50 [nM]
1,COC(=O)c1cnn(-c2ccc(C#N)cc2)c1-c1c(C)n(-c2cccc(C(F)(F)F)c2)c(=O)n(C)c1=O [Example 188],18.6
2,"Cc1c(-c2c(S(=O)(=O)O)cnn2-c2ccc(C#N)cc2)c(=O)n(C)c(=O)n1-c1cccc(C(F)(F)F)c1 [Example 191, 1-(4-cyanophenyl)-5-(3,6-dimethyl-2,4-dioxo-1-(3-trifluoromethylphenyl)-1,2,3,4-tetrahydropyrimidin-5-yl)-1H-pyrazole-4-sulfonic acid]",23.1
3,Cc1c(-c2c(S(=O)(=O)O)cnn2-c2ccc(C#N)cc2)c(=O)n(C)c(=O)n1-c1cccc(C(F)(F)F)c1 [Example 196],8.4
4,"Cc1c(-c2c(S(N)(=O)=O)cnn2-c2ccc(C#N)cc2)c(=O)n(C)c(=O)n1-c1cccc(C(F)(F)F)c1 [Example 205, 1-(4-cyanophenyl)-5-(3,6-dimethyl-2,4-dioxo-1-(3-trifluoromethylphenyl)-1,2,3,4-tetrahydropyrimidin-5-yl)-1H-pyrazole-4-sulfonamide]",15
5,Cc1c(-c2c(S(N)(=O)=O)cnn2-c2ccc(C#N)cc2)c(=O)n(C(C)C)c(=O)n1-c1cccc(C(F)(F)F)c1 [Example 206],9.3
6,"Cc1c(-c2c(S(N)(=O)=O)cnn2-c2ccc(C#N)cc2)c(=O)n(C)c(=O)n1-c1cccc(C(F)(F)F)c1 [Example 211, (+)-1-(4-cyanophenyl)-5-(3,6-dimethyl-2,4-dioxo-1-(3-trifluoromethylphenyl)-1,2,3,4-tetrahydropyrimidin-5-yl)-1H-pyrazole-4-sulfonamide 0.5 IPA solvates]",8.8
7,CNS(=O)(=O)c1cnn(-c2ccc(C#N)cc2)c1-c1c(C)n(-c2cccc(C(F)(F)F)c2)c(=O)n(C)c1=O [Example 218],14.7
8,Cc1c(-c2c(S(=O)(=O)N3CCOCC3)cnn2-c2ccc(C#N)cc2)c(=O)n(C)c(=O)n1-c1cccc(C(F)(F)F)c1 [Example 221],19.8
9,Cc1c(-c2c(S(=O)(=O)NCCO)cnn2-c2ccc(C#N)cc2)c(=O)n(C)c(=O)n1-c1cccc(C(F)(F)F)c1 [Example 227],7.8
10,Cc1c(-c2c(S(=O)(=O)N3CCOC3=O)cnn2-c2ccc(C#N)cc2)c(=O)n(C)c(=O)n1-c1cccc(C(F)(F)F)c1 [Example 239],7.7
11,CCCCC(=O)NS(=O)(=O)c1cnn(-c2ccc(C#N)cc2)c1-c1c(C)n(-c2cccc(C(F)(F)F)c2)c(=O)n(C)c1=O [Example 243],5.4
12,Cc1c(-c2c(S(=O)(=O)NC(=O)c3ccccc3)cnn2-c2ccc(C#N)cc2)c(=O)n(C)c(=O)n1-c1cccc(C(F)(F)F)c1 [Example 249],11.9
13,COC(=O)NS(=O)(=O)c1cnn(-c2ccc(C#N)cc2)c1-c1c(C)n(-c2cccc(C(F)(F)F)c2)c(=O)n(C)c1=O [Example 252],20.6
14,CCNC(=O)NS(=O)(=O)c1cnn(-c2ccc(C#N)cc2)c1-c1c(C)n(-c2cccc(C(F)(F)F)c2)c(=O)n(C)c1=O [Example 257],7.7
15,Cc1c(-c2c(S(=O)(=O)NC(=O)C3CCCCC3)cnn2-c2ccc(C#N)cc2)c(=O)n(C)c(=O)n1-c1cccc(C(F)(F)F)c1 [Example 261],7.2
16,Cc1c(-c2c(S(C)(=O)=O)cnn2-c2ccc(C#N)cc2)c(=O)n(C)c(=O)n1-c1cccc(C(F)(F)F)c1 [Example 265],23.7
17,"CCn1c(=O)c(-c2c(C(C)(C)O)cnn2-c2ccc(C#N)cc2)c(C)n(-c2cccc(C(F)(F)F)c2)c1=O [Example 288, 4-(5-(3-ethyl-6-methyl-2,4-dioxo-1-(3-trifluoromethylphenyl)-1,2,3,4-tetrahydropyrimidin-5-yl)-4-(2-hydroxypropan-2-yl)-1H-pyrazol-1-yl)benzonitrile]",26.2
18,Cc1c(-c2c(C3(O)CCS(=O)(=O)CC3)cnn2-c2ccc(C#N)cc2)c(=O)n(C)c(=O)n1-c1cccc(C(F)(F)F)c1 [Example 293],25.1
19,"CCn1c(=O)c(-c2c(C(C)(C)N)cnn2-c2ccc(C#N)cc2)c(C)n(-c2cccc(C(F)(F)F)c2)c1=O [Example 297, 4-(4-(2-aminopropane-2-yl)-5-(3-ethyl-6-methyl-2,4-dioxo-1-(3-trifluoromethylphenyl)-1,2,3,4-tetrahydropyrimidin-5-yl)-1H-pyrazol-1-yl)benzonitrile]",29.7
20,CCn1c(=O)c(-c2c(C3(N)CCC3)cnn2-c2ccc(C#N)cc2)c(C)n(-c2cccc(C(F)(F)F)c2)c1=O [Example 298],42.7
21,Cc1c(-c2c(CN3CC(F)(F)C3)cnn2-c2ccc(C#N)cc2)c(=O)n(C)c(=O)n1-c1cccc(C(F)(F)F)c1 [Example 305],22
22,"Cc1c(-c2c(N3CCOCC3)cnn2-c2ccc(C#N)cc2)c(=O)n(C)c(=O)n1-c1cccc(C(F)(F)F)c1 [Example 315, 4-(5-(3,6-Dimethyl-2,4-dioxo-1-(3-trifluoromethylphenyl)-1,2,3,4-tetrahydropyrimidin-5-yl)-4-morpholino-1H-pyrazol-1-yl)benzonitrile]",24.2

row,SMILES,IC50 [nM]
1,Cc1c(-c2c(N3CCN(C(C)C)CC3)cnn2-c2ccc(C#N)cc2)c(=O)n(C)c(=O)n1-c1cccc(C(F)(F)F)c1 [Example 318],14.9
2,"Cc1c(-c2ccnn2-c2ccc(C#N)cc2)c(=O)n([C@H](C)CS(N)(=O)=O)c(=O)n1-c1cccc(C(F)(F)F)c1 [Example 324, (R)-2-(5-(1-(4-Cyanophenyl)-1H-pyrazol-5-yl)-4-methyl-2,6-dioxo-3-(3-trifluoromethylphenyl)-2,3-dihydropyrimidin-1(6H)-yl)propane-1-sulfonamide]",9.6
3,Cc1c(-c2ccnn2-c2ccc(C#N)cc2F)c(=O)n(C)c(=O)n1-c1cccc(C(F)(F)F)c1 [Example 326],24.3
4,Cc1cc(C#N)ccc1-n1nccc1-c1c(C)n(-c2cccc(C(F)(F)F)c2)c(=O)n(C)c1=O [Example 328],24.8
5,CC(=O)N1CCC(n2c(=O)c(-c3ccnn3-c3ccc(C#N)cc3)c(C)n(-c3cccc(C(F)(F)F)c3)c2=O)CC1 [Example 337],4.5
6,CCCN1CCC(n2c(=O)c(-c3ccnn3-c3ccc(C#N)cc3)c(C)n(-c3cccc(C(F)(F)F)c3)c2=O)C1 (stereo not shown) [Example 343],7.3
7,Cc1c(-c2ccnn2-c2ccc(C#N)cc2)c(=O)n(C2CCN(C(=O)C(C)(C)O)CC2)c(=O)n1-c1cccc(C(F)(F)F)c1 [Example 355],8.1
8,Cc1c(-c2ccnn2-c2ccc(C#N)cc2)c(=O)n(C2CCN(C(=O)C(C)(C)N)CC2)c(=O)n1-c1cccc(C(F)(F)F)c1 [Example 357],10.2
9,"Cc1c(-c2c(F)cnn2-c2ccc(C#N)cc2)c(=O)n(C)c(=O)n1-c1cccc(C(F)(F)F)c1 [Example 358, 4-(5-(3,6-dimethyl-2,4-dioxo-1-(3-trifluoromethylphenyl)-1,2,3,4-tetrahydropyrimidin-5-yl)-4-fluoro-1H-pyrazol-1-yl)benzonitrile]",29.5
10,CC(=O)N1CCC(n2c(=O)c(-c3c(F)cnn3-c3ccc(C#N)cc3)c(C)n(-c3cccc(C(F)(F)F)c3)c2=O)CC1 [Example 359],15.3
11,"Cc1c(-c2c(Cl)cnn2-c2ccc(C#N)cc2)c(=O)n(C)c(=O)n1-c1cccc(C(F)(F)F)c1 [Example 360, 4-(4-chloro-5-(3,6-dimethyl-2,4-dioxo-1-(3-trifluoromethylphenyl)-1,2,3,4-tetrahydropyrimidin-5-yl)-1H-pyrazol-1-yl)benzonitrile]",16.7
12,Cc1c(-c2c(Cl)cnn2-c2ccc(C#N)cc2)c(=O)n(C(C)C(N)=O)c(=O)n1-c1cccc(C(F)(F)F)c1 (stereo not shown) [Example 361],6.3
13,"Cc1c(-c2c(C#N)cnn2-c2ccc(C#N)cc2)c(=O)n(C)c(=O)n1-c1cccc(C(F)(F)F)c1 [Example 363, 1-(4-Cyanophenyl)-5-(3,6-dimethyl-2,4-dioxo-1-(3-trifluoromethyl)-1,2,3,4-tetrahydropyrimidin-5-yl)-1H-pyrazole-4-carbonitrile]",19.1
14,Cc1c(-c2c(C#N)cnn2-c2ccc(C#N)cc2)c(=O)n([C@@H]2CCN(C)C2)c(=O)n1-c1cccc(C(F)(F)F)c1 [Example 367],14
15,Cc1c(-c2ccnn2-c2ccc(C#N)cc2)c(=O)n([C@H](C)CS(C)(=O)=O)c(=O)n1-c1cccc(C(F)(F)F)c1 [Example 375],12.3
16,Cc1c(-c2ccnn2-c2ccc(C#N)cc2)c(=O)n(C(C)C(=O)N(C)C)c(=O)n1-c1cccc(C(F)(F)F)c1 (stereo not shown) [Example 379],18.7
17,Cc1c(-c2ccnn2-c2ccc(C#N)cc2)c(=O)n(C(C)C(=O)N2CC(O)C2)c(=O)n1-c1cccc(C(F)(F)F)c1 (stereo not shown) [Example 383],12.8
18,Cc1c(-c2ccnn2-c2ccc(C#N)cc2)c(=O)n(C(C)CN2CCOCC2)c(=O)n1-c1cccc(C(F)(F)F)c1 (stereo not shown) [Example 386],10.1
19,Cc1c(-c2ccnn2-c2ccc(C#N)cc2)c(=O)n(C(C)CN2CCC(S(C)(=O)=O)CC2)c(=O)n1-c1cccc(C(F)(F)F)c1 (stereo not shown) [Example 387],8.9
20,Cc1c(-c2ccnn2-c2ccc(C#N)cc2)c(=O)n(C(C)CN2CC(O)C2)c(=O)n1-c1cccc(C(F)(F)F)c1 (stereo not shown) [Example 390],10.4
21,Cc1c(-c2ccnn2-c2ccc(C#N)cc2)c(=O)n(C(C)CNS(C)(=O)=O)c(=O)n1-c1cccc(C(F)(F)F)c1 (stereo not shown) [Example 393],26.3
